Data: ChEMBL document CHEMBL5303573, “Mapping human microbiome drug metabolism by gut bacteria and their genes” (Nature, 2019)

Tests used:
[1] = The drug is tested on Bifidobacterium breve strain: DSM20213 for biotransformation. The drug concentrations were measured before and after a 12-h incubation by liquid-chromatography-coupled mass spectrometry (LC–MS); details: 2 µM
[2] = The drug is tested on Bacteroides cellulosilyticus strain: DSM14838 for biotransformation. The drug concentrations were measured before and after a 12-h incubation by liquid-chromatography-coupled mass spectrometry (LC–MS); details: 2 µM
[3] = The drug is tested on Bacteroides fragilis strain: HMW615 for biotransformation. The drug concentrations were measured before and after a 12-h incubation by liquid-chromatography-coupled mass spectrometry (LC–MS); details: 2 µM
[4] = The drug is tested on Bacteroides fragilis strain: ATCC43859 for biotransformation. The drug concentrations were measured before and after a 12-h incubation by liquid-chromatography-coupled mass spectrometry (LC–MS); details: 2 µM
[5] = The drug is tested on Bacteroides uniformis strain: ATCC8492 for biotransformation. The drug concentrations were measured before and after a 12-h incubation by liquid-chromatography-coupled mass spectrometry (LC–MS); details: 2 µM
[6] = The drug is tested on Bacteroides vulgatus strain: ATCC8482 for biotransformation. The drug concentrations were measured before and after a 12-h incubation by liquid-chromatography-coupled mass spectrometry (LC–MS); details: phocaeicola vulgatus, 2 µM
[7] = The drug is tested on Bacteroides xylanisolvens strain: DSM18836 for biotransformation. The drug concentrations were measured before and after a 12-h incubation by liquid-chromatography-coupled mass spectrometry (LC–MS); details: 2 µM
[8] = The drug is tested on Odoribacter splanchnicus strain: fecal isolate for biotransformation. The drug concentrations were measured before and after a 12-h incubation by liquid-chromatography-coupled mass spectrometry (LC–MS); details: 2 µM
[9] = The drug is tested on Parabacteroides merdae strain: ATCC43184 for biotransformation. The drug concentrations were measured before and after a 12-h incubation by liquid-chromatography-coupled mass spectrometry (LC–MS); details: 2 µM
[10] = The drug is tested on Clostridium sp. strain: fecal isolate for biotransformation. The drug concentrations were measured before and after a 12-h incubation by liquid-chromatography-coupled mass spectrometry (LC–MS); details: 2 µM
[11] = The drug is tested on Eubacterium rectale strain: ATCC33656 for biotransformation. The drug concentrations were measured before and after a 12-h incubation by liquid-chromatography-coupled mass spectrometry (LC–MS); details: agathobacter rectalis, 2 µM
[12] = The drug is tested on Edwardsiella tarda strain: ATCC23685 for biotransformation. The drug concentrations were measured before and after a 12-h incubation by liquid-chromatography-coupled mass spectrometry (LC–MS); details: 2 µM
[13] = bacteroides eggerthii, 12 h, 2 µM
Description: The drug is tested on Bacteroides eggerthii strain: DSM20697 for biotransformation. The drug concentrations were measured before and after a 12-h incubation by liquid-chromatography-coupled mass spectrometry (LC–MS)

[14] = bacteroides fragilis, 12 h, 2 µM
Description: The drug is tested on Bacteroides fragilis strain: NCTC 9343 for biotransformation. The drug concentrations were measured before and after a 12-h incubation by liquid-chromatography-coupled mass spectrometry (LC–MS)

[15] = bacteroides fragilis, 12 h, 2 µM; remark: listed apart in the source
Description: The drug is tested on Bacteroides fragilis strain: DS-208 for biotransformation. The drug concentrations were measured before and after a 12-h incubation by liquid-chromatography-coupled mass spectrometry (LC–MS)

[16] = anaerostipes sp., 12 h, 2 µM
Description: The drug is tested on Anaerostipes sp. strain: fecal isolate for biotransformation. The drug concentrations were measured before and after a 12-h incubation by liquid-chromatography-coupled mass spectrometry (LC–MS)

[17] = victivallis vadensis, 12 h, 2 µM
Description: The drug is tested on Victivallis vadensis strain: ATCC BAA-548 for biotransformation. The drug concentrations were measured before and after a 12-h incubation by liquid-chromatography-coupled mass spectrometry (LC–MS)

[18] = The drug is tested on Alistipes indistinctus strain: DSM22520 for biotransformation. The drug concentrations were measured before and after a 12-h incubation by liquid-chromatography-coupled mass spectrometry (LC–MS); details: 2 µM
[19] = The drug is tested on Bacteroides ovatus strain: ATCC8483 for biotransformation. The drug concentrations were measured before and after a 12-h incubation by liquid-chromatography-coupled mass spectrometry (LC–MS); details: 2 µM
[20] = The drug is tested on Eggerthella lenta strain: ATCC25559 for biotransformation. The drug concentrations were measured before and after a 12-h incubation by liquid-chromatography-coupled mass spectrometry (LC–MS); details: 2 µM

CCOC(=O)[C@H](CCc1ccccc1)N[C@@H](C)C(=O)N1Cc2ccccc2C[C@H]1C(=O)O
Bacterial Biotransformation [1]: Compound metabolized | Bacterial Biotransformation [2]: Compound metabolized | Bacterial Biotransformation [3]: Compound metabolized | Bacterial Biotransformation [4]: Compound metabolized | Bacterial Biotransformation [5]: Compound metabolized | Bacterial Biotransformation [6]: Compound metabolized | Bacterial Biotransformation [7]: Compound metabolized | Bacterial Biotransformation [8]: Compound metabolized | Bacterial Biotransformation [9]: Compound NOT metabolized | Bacterial Biotransformation [10]: Compound metabolized | Bacterial Biotransformation [11]: Compound NOT metabolized | Bacterial Biotransformation [12]: Compound NOT metabolized | Bacterial Biotransformation [13]: Compound metabolized | Bacterial Biotransformation [14]: Compound metabolized | Bacterial Biotransformation [15]: Compound metabolized | Bacterial Biotransformation [16]: Compound NOT metabolized | Bacterial Biotransformation [17]: Compound NOT metabolized

CN1CCC(=C2c3ccccc3CCc3cccnc32)CC1.O=C(O)/C=C\C(=O)O.O=C(O)/C=C\C(=O)O [AZATADINE MALEATE]
Bacterial Biotransformation [1]: Compound NOT metabolized | Bacterial Biotransformation [18]: Compound NOT metabolized | Bacterial Biotransformation [2]: Compound NOT metabolized | Bacterial Biotransformation [19]: Compound NOT metabolized | Bacterial Biotransformation [9]: Compound NOT metabolized | Bacterial Biotransformation [10]: Compound NOT metabolized | Bacterial Biotransformation [11]: Compound NOT metabolized | Bacterial Biotransformation [12]: Compound NOT metabolized | Bacterial Biotransformation [13]: Compound NOT metabolized | Bacterial Biotransformation [14]: Compound NOT metabolized | Bacterial Biotransformation [15]: Compound NOT metabolized | Bacterial Biotransformation [16]: Compound NOT metabolized | Bacterial Biotransformation [17]: Compound NOT metabolized

CCc1oc2ccccc2c1C(=O)c1cc(Br)c(O)c(Br)c1 [BENZBROMARONE]
Bacterial Biotransformation [1]: Compound metabolized | Bacterial Biotransformation [20]: Compound NOT metabolized | Bacterial Biotransformation [18]: Compound NOT metabolized | Bacterial Biotransformation [2]: Compound NOT metabolized | Bacterial Biotransformation [3]: Compound NOT metabolized | Bacterial Biotransformation [4]: Compound NOT metabolized | Bacterial Biotransformation [19]: Compound NOT metabolized | Bacterial Biotransformation [5]: Compound NOT metabolized | Bacterial Biotransformation [6]: Compound NOT metabolized | Bacterial Biotransformation [7]: Compound NOT metabolized | Bacterial Biotransformation [8]: Compound NOT metabolized | Bacterial Biotransformation [9]: Compound NOT metabolized | Bacterial Biotransformation [10]: Compound NOT metabolized | Bacterial Biotransformation [11]: Compound NOT metabolized | Bacterial Biotransformation [12]: Compound NOT metabolized | Bacterial Biotransformation [13]: Compound NOT metabolized | Bacterial Biotransformation [14]: Compound NOT metabolized | Bacterial Biotransformation [15]: Compound NOT metabolized | Bacterial Biotransformation [16]: Compound NOT metabolized

CN1CCC[C@@H]1CCO[C@](C)(c1ccccc1)c1ccc(Cl)cc1.O=C(O)/C=C/C(=O)O [CLEMASTINE FUMARATE]
Bacterial Biotransformation [1]: Compound NOT metabolized | Bacterial Biotransformation [20]: Compound NOT metabolized | Bacterial Biotransformation [18]: Compound NOT metabolized | Bacterial Biotransformation [2]: Compound metabolized | Bacterial Biotransformation [3]: Compound NOT metabolized | Bacterial Biotransformation [4]: Compound NOT metabolized | Bacterial Biotransformation [19]: Compound NOT metabolized | Bacterial Biotransformation [5]: Compound metabolized | Bacterial Biotransformation [6]: Compound metabolized | Bacterial Biotransformation [7]: Compound metabolized | Bacterial Biotransformation [8]: Compound metabolized | Bacterial Biotransformation [9]: Compound NOT metabolized | Bacterial Biotransformation [10]: Compound metabolized | Bacterial Biotransformation [12]: Compound NOT metabolized | Bacterial Biotransformation [13]: Compound metabolized | Bacterial Biotransformation [14]: Compound metabolized | Bacterial Biotransformation [15]: Compound metabolized | Bacterial Biotransformation [16]: Compound NOT metabolized

CN1CCN(C2=Nc3cc(Cl)ccc3Nc3ccccc32)CC1 [CLOZAPINE]
Bacterial Biotransformation [1]: Compound NOT metabolized | Bacterial Biotransformation [2]: Compound NOT metabolized | Bacterial Biotransformation [3]: Compound NOT metabolized | Bacterial Biotransformation [19]: Compound NOT metabolized | Bacterial Biotransformation [5]: Compound NOT metabolized | Bacterial Biotransformation [6]: Compound NOT metabolized | Bacterial Biotransformation [7]: Compound NOT metabolized | Bacterial Biotransformation [8]: Compound NOT metabolized | Bacterial Biotransformation [9]: Compound NOT metabolized | Bacterial Biotransformation [10]: Compound NOT metabolized | Bacterial Biotransformation [11]: Compound NOT metabolized | Bacterial Biotransformation [12]: Compound NOT metabolized | Bacterial Biotransformation [13]: Compound NOT metabolized | Bacterial Biotransformation [14]: Compound NOT metabolized | Bacterial Biotransformation [15]: Compound NOT metabolized | Bacterial Biotransformation [16]: Compound NOT metabolized | Bacterial Biotransformation [17]: Compound NOT metabolized

CN(C)CCC=C1c2ccccc2C=Cc2ccccc21 [CYCLOBENZAPRINE]
Bacterial Biotransformation [1]: Compound NOT metabolized | Bacterial Biotransformation [3]: Compound NOT metabolized | Bacterial Biotransformation [19]: Compound NOT metabolized | Bacterial Biotransformation [6]: Compound NOT metabolized | Bacterial Biotransformation [7]: Compound NOT metabolized | Bacterial Biotransformation [8]: Compound NOT metabolized | Bacterial Biotransformation [9]: Compound NOT metabolized | Bacterial Biotransformation [10]: Compound metabolized | Bacterial Biotransformation [11]: Compound NOT metabolized | Bacterial Biotransformation [12]: Compound NOT metabolized | Bacterial Biotransformation [13]: Compound NOT metabolized | Bacterial Biotransformation [14]: Compound NOT metabolized | Bacterial Biotransformation [15]: Compound NOT metabolized | Bacterial Biotransformation [16]: Compound NOT metabolized | Bacterial Biotransformation [17]: Compound NOT metabolized

CNCCC(Oc1ccc(C(F)(F)F)cc1)c1ccccc1 (stereo unspecified) [FLUOXETINE]
Bacterial Biotransformation [1]: Compound metabolized | Bacterial Biotransformation [20]: Compound NOT metabolized | Bacterial Biotransformation [18]: Compound metabolized | Bacterial Biotransformation [2]: Compound NOT metabolized | Bacterial Biotransformation [3]: Compound metabolized | Bacterial Biotransformation [4]: Compound metabolized | Bacterial Biotransformation [19]: Compound metabolized | Bacterial Biotransformation [5]: Compound metabolized | Bacterial Biotransformation [6]: Compound metabolized | Bacterial Biotransformation [7]: Compound metabolized | Bacterial Biotransformation [8]: Compound metabolized | Bacterial Biotransformation [9]: Compound metabolized | Bacterial Biotransformation [10]: Compound metabolized | Bacterial Biotransformation [11]: Compound metabolized | Bacterial Biotransformation [12]: Compound NOT metabolized | Bacterial Biotransformation [13]: Compound metabolized | Bacterial Biotransformation [14]: Compound metabolized | Bacterial Biotransformation [15]: Compound metabolized | Bacterial Biotransformation [16]: Compound metabolized

CC(C(=O)O)c1ccc2c(c1)Cc1cccnc1O2 (stereo unspecified) [PRANOPROFEN]
Bacterial Biotransformation [1]: Compound metabolized | Bacterial Biotransformation [20]: Compound NOT metabolized | Bacterial Biotransformation [18]: Compound metabolized | Bacterial Biotransformation [2]: Compound metabolized | Bacterial Biotransformation [3]: Compound metabolized | Bacterial Biotransformation [4]: Compound metabolized | Bacterial Biotransformation [19]: Compound metabolized | Bacterial Biotransformation [5]: Compound metabolized | Bacterial Biotransformation [6]: Compound metabolized | Bacterial Biotransformation [7]: Compound metabolized | Bacterial Biotransformation [8]: Compound metabolized | Bacterial Biotransformation [9]: Compound metabolized | Bacterial Biotransformation [10]: Compound metabolized | Bacterial Biotransformation [12]: Compound metabolized | Bacterial Biotransformation [13]: Compound metabolized | Bacterial Biotransformation [14]: Compound metabolized | Bacterial Biotransformation [15]: Compound metabolized | Bacterial Biotransformation [16]: Compound NOT metabolized
